Our source for the IC50 and Emax values is EP3964206A1, “COMPOUNDS FOR THE TREATMENT OF COVID-19” (priority 2020, dated 2022).

Structures can show the parent of a compound that is named as a salt. Peptide text beside a SMILES is read from it. * marks the point of attachment. Cbz = O=C(OCc1ccccc1)*

The first assay relates to SARS-CoV-2. The assay can be described thus: microbe, parasite or virus in culture. The assay is classed as cell-based. As to conditions: Severe acute respiratory syndrome coronavirus 2, 120 h.
What is called IC50 is the concentration at which inhibition is half-maximal. `CC(C)(C)c1cc(C=C(C#N)C#N)cc(Br)c1O` [Compound 99, 2-(3-Bromo-5-tert-butyl-4-hydroxybenzylidene)propanedinitrile] yielded an IC50 of 7.23 µM.

On to `CCCc1c(-c2ccc(O)cc2)nn(-c2ccc(O)cc2)c1-c1ccc(O)cc1` [Compound 88, 1,3,5-Tris(4-hydroxyphenyl)-4-propyl-1H-pyrazole], for which the concentration for half-maximal inhibition (IC50) came to 8.3 µM.

The compound `CN(Cc1cnc2nc(N)nc(N)c2n1)c1ccc(C(=O)N[C@@H](CCC(=O)O)C(=O)O)cc1` [Compound 1, N-[4-[N-(2,4-Diaminopteridin-6-ylmethyl)-N-methylamino]benzoyl]-L-glutamic acid] displayed an IC50 of 0.05 µM.

`CN1[C@@H]2CC[C@H]1C[C@@H](OC(=O)c1cc(Cl)cc(Cl)c1)C2` [Compound 36, 3,5-Dichlorobenzoic acid endo-8-methyl-8-azabicyclo[3.2.1]oct-3-yl ester]: 43.9 µM corresponded to half-maximal inhibition (IC50).

Compound `CN(C)CCC=C1c2ccccc2C=Cc2ccccc21` [Compound 90, 3-(5H-Dibenzo[a,d]cyclohepten-5-ylidene)-N,N-dimethylpropan-1-amine hydrochloride] gave an IC50 of 12.1 µM.

Take `CC(C)(C)C(=O)C(=Cc1cccc([N+](=O)[O-])c1)n1cncn1` [Compound 76, 4,4-dimethyl-1-(3-nitrophenyl)-2-(1H-1,2,4-triazol-1-yl)-1-penten-3-one]: the IC50 turned out to be 4.33 µM.

The assay is the same for the next values; noted with them: Severe acute respiratory syndrome coronavirus 2, 120 h, read-out: Maximum confluence reached (%).
On to `O=C(O)Cc1cccc(OCCCN(Cc2cccc(C(F)(F)F)c2Cl)CC(c2ccccc2)c2ccccc2)c1` [Compound 71, 2-[3-[3-[N-[2-Chloro-3-(trifluoromethyl)benzyl]-N-(2,2-diphenylethyl)amino]propoxy]phenyl]acetic acid], for which the Emax is 38%.

For the compound `CC(C)c1cnn2c(NCc3ccccc3)cc(NCCCCCCN)nc12` [Compound 48, N5-(6-Aminohexyl)-N7-benzyl-3-isopropylpyrazolo[1,5-a]pyrimidine-5,7-diamine], the Emax was 47.3%.

For `CC(C)(C)c1cc(C=C(C#N)C#N)cc(Br)c1O` [Compound 99, 2-(3-Bromo-5-tert-butyl-4-hydroxybenzylidene)propanedinitrile], the Emax came to 37.3%.

In the case of `Cc1ccc(C(=O)Nc2cccc(C(F)(F)F)c2)cc1Nc1nc(-c2cccnc2)nc2c1cnn2C` [Compound 62, 4-methyl-3-{[1-methyl-6-(3-pyridinyl)-1H-pyrazolo[3,4-d]pyrimidin-4-yl]amino}-N-[3-(trifluoromethyl)phenyl]benzamide], the Emax came out at 88.4%.

Take `O=[N+]([O-])c1ccc(N/N=C/c2sc(N3CCOCC3)nc2-c2ccccc2)c(S(=O)(=O)Nc2ccccc2Cl)c1` [Compound 73, N-(2-chlorophenyl)-2-[(2E)-2-[(2-morpholin-4-yl-4-phenyl-1,3-thiazol-5-yl)methylidene]hydrazinyl]-5-nitrobenzenesulfonamide]: the Emax was 53.9%.

On to `COc1ccccc1[C@H](Cn1c(=O)n(C(C)(C)C(=O)O)c(=O)c2c(C)c(-c3ncco3)sc21)OC1CCOCC1` [Compound 61, 2-[1-[(2R)-2-(2-Methoxyphenyl)-2-(tetrahydro-2H-pyran-4-yloxy)ethyl]-5-methyl-6-(1,3-oxazol-2-yl)-2,4-dioxo-1,4-dihydrothieno[2,3-d]pyrimidin-3(2H)-yl]-2-methylpropanoic acid], for which the Emax stood at 78.2%.

Regarding `CCCc1c(-c2ccc(O)cc2)nn(-c2ccc(O)cc2)c1-c1ccc(O)cc1` [Compound 88, 1,3,5-Tris(4-hydroxyphenyl)-4-propyl-1H-pyrazole], the Emax was 48.2%.

For `Cc1[nH]c(/C=C2\C(=O)Nc3ccc(S(=O)(=O)Cc4c(Cl)cccc4Cl)cc32)c(C)c1C(=O)N1CCC[C@@H]1CN1CCCC1` [Compound 53, 5-(2,6-Dichlorobenzylsulfonyl)-3(Z)-[3,5-dimethyl-4-[2(R)-(pyrrolidin-1-ylmethyl)pyrrolidin-1-ylcarbonyl]-1H-pyrrol-2-ylmethylene]-2,3-dihydro-1H-indol-2-one], the Emax worked out at 95.7%.

`O=C(CCCN1CCC2(CC1)C(=O)N(Cc1cccc(F)c1)CN2c1ccccc1)c1ccc(F)cc1` [Compound 46, 3-[(3-fluorophenyl)methyl]-8-[4-(4-fluorophenyl)-4-oxobutyl]-1-phenyl-1,3,8-triazaspiro[4.5]decan-4-one]: the Emax stood at 43%.

As to `O=S(=O)(NCC1CC1)c1ccc(Nc2nccc(N3CCCc4cc(O)ccc43)n2)cc1` [Compound 86, N-(Cyclopropylmethyl)-4-[[4-(3,4-dihydro-6-hydroxy-1(2H)-quinolinyl)-2-pyrimidinyl]amino]benzenesulfonamide], the Emax was determined as 55%.

Consider `O=C(NCCN1CCC2(CC1)C(=O)NCN2c1cccc(F)c1)c1ccc2ccccc2c1` [Compound 56, N-[2-[1-(3-Fluorophenyl)-4-oxo-1,3,8-triazaspiro[4.5]dec-8-yl]ethyl]naphthalen-2-carboxamide], for which the Emax amounted to 98.5%.

For `CNCc1ccc(-c2cc(-c3nc(-c4ccc(S(=O)(=O)C(C)C)cc4)cnc3N)on2)cc1` [Compound 34, 3-[3-[4-[(Methylamino)methyl]phenyl]-1,2-oxazol-5-yl]-5-[4-(propan-2-ylsulfonyl)phenyl]pyrazin-2-amine], the Emax was determined as 99.2%.

`Oc1c(Cl)cc(Cl)cc1Sc1cc(Cl)cc(Cl)c1O` [Compound 102, 2,2'-Thio-bis(4,6-dichlorophenol)]: the Emax was determined as 31.2%.

Consider `Cc1cccc(Nc2nc(-c3ccncc3)cs2)c1` [Compound 85, N-(3-Methylphenyl)-4-(4-pyridyl)thiazol-2-amine], for which the Emax came to 47.8%.

Turning to `C[C@@H]1COCCN1c1cc(=O)n2c(n1)N(Cc1cncc(Cl)c1)[C@H](C(F)(F)F)CC2` [Compound 54, (8S)-9-[(5-Chloropyridin-3-yl)methyl]-2-[(3R)-3-methylmorpholin-4-yl]-8-(trifluoromethyl)-6,7,8,9-tetrahydro-4H-pyrimido[1,2-a]pyrimidin-4-one], the Emax amounted to 89%.

As to `CCN(CC)CCOc1ccc2c(c1)C(=O)c1cc(OCCN(CC)CC)ccc1-2` [Compound 84, 2,7-Bis[2-(diethylamino)ethoxy]-9H-fluoren-9-one], the Emax was 68.9%.

With `CCN(CC)CCOc1ccc(C(=C(Cl)c2ccccc2)c2ccccc2)cc1` [Compound 82, 2-[4-(2-Chloro-1,2-diphenylvinyl)phenoxy]-N,N-diethylethanamine citrate], the Emax was found to be 54.7%.

For the compound `CC(C)C[C@@H](C=O)NC(=O)[C@H](CC(C)C)NC(=O)[C@H](CC(C)C)NC(=O)OCc1ccccc1` [Compound 52, Benzyloxycarbonyl-L-leucyl-L-leucyl-L-leucinal] (Cbz-Leu-Leu-Leu-aldehyde), the Emax worked out at 82.8%.

For the compound `CCCCN(CCCC)CCC(O)c1cc2c(Cl)cc(Cl)cc2c2cc(C(F)(F)F)ccc12` (racemic) [Compound 40, (±)-1,3-Dichloro-9-[3-(dibutylamino)-1-hydroxypropyl]-6-(trifluoromethyl)phenanthrene hydrochloride], the Emax was found to be 51.8%.

In the case of `Nc1ccc(C(=O)Nc2cccc(-c3nc(N4CCOCC4)c4oc5ncccc5c4n3)c2)cn1` [Compound 104, 6-Amino-N-[3-[4-(4-morpholinyl)pyrido[3',2':4,5]furo[3,2-d]pyrimidin-2-yl]phenyl]pyridine-3-carboxamide], the Emax was 35.5%.

In the case of `OCCNC1CCCc2c1[nH]c1ccc(-c3ccccc3)cc21` (centres unmarked) [Compound 77, 2-[(6-Phenyl-2,3,4,9-tetrahydro-1H-carbazol-1-yl)amino]ethanol], the Emax came out at 50.8%.

On to `Cc1c(O)cccc1C(=O)N[C@@H](CSc1ccccc1)[C@H](O)CN1C[C@H]2CCCC[C@H]2C[C@H]1C(=O)NC(C)(C)C` [Compound 31, (3S,4aS,8aS)-N-tert-Butyl-2-[2(R)-hydroxy-3(R)-(3-hydroxy-2-methylbenzamido)-4-(phenylsulfanyl)butyl]perhydroisoquinoline-3-carboxamide methanesulfonate], for which the Emax came to 59.5%.

`CN(Cc1cnc2nc(N)nc(N)c2n1)c1ccc(C(=O)N[C@@H](CCC(=O)O)C(=O)O)cc1` [Compound 1, N-[4-[N-(2,4-Diaminopteridin-6-ylmethyl)-N-methylamino]benzoyl]-L-glutamic acid]: the Emax came out at 64%.

Turning to `Cc1cc(O[C@@H](CCC(F)(F)F)c2ccc(C(=O)NCCC(=O)O)cc2)cc(C)c1-c1ccc(C(C)(C)C)cc1` [Compound 57, N-(4-[(1S)-1-[(4'-tert-Butyl-2,6-dimethylbiphenyl-4-yl)oxy]-4,4,4-trifluorobutyl]benzoyl)-beta-alanine], the Emax came out at 39.5%.

Turning to `Cn1cc(-c2ccncc2)c(-c2ccc(OCc3ccc4ccccc4n3)cc2)n1` [Compound 83, 2-[4-[1-Methyl-4-(4-pyridyl)-1H-pyrazol-3-yl]phenoxymethyl]quinoline succinate], the Emax was determined as 36.7%.

For the compound `CCN(CC)CCO[C@H]1CC[C@@]2(C)C(=CC[C@@H]3[C@@H]2CC[C@]2(C)C(=O)CC[C@@H]32)C1` [Compound 80, 3beta-[2-(Diethylamino)ethoxy]androst-5-en-17-one hydrochloride], the Emax turned out to be 44.7%.

With `COc1cc2ncnc(Nc3cccc(Br)c3)c2cc1OC` [Compound 68, 4-(3-Bromophenylamino)-6,7-dimethoxyquinazoline], the Emax came to 54.5%.

With `CN1[C@@H]2CC[C@H]1C[C@@H](OC(=O)c1cc(Cl)cc(Cl)c1)C2` [Compound 36, 3,5-Dichlorobenzoic acid endo-8-methyl-8-azabicyclo[3.2.1]oct-3-yl ester], the Emax turned out to be 69%.

As to `COc1cc2c(N3CCN(C(=O)Nc4ccc(OC(C)C)cc4)CC3)ncnc2cc1OCCCN1CCCCC1` [Compound 35, N-(4-Isopropoxyphenyl)-4-[6-methoxy-7-[3-(1-piperidinyl)propoxy]quinazolin-4-yl]piperazine-1-carboxamide], the Emax turned out to be 80.1%.

`CC(=O)[C@]1(O)Cc2c(O)c3c(c(O)c2[C@@H](O[C@H]2C[C@H](N)[C@H](O)[C@H](C)O2)C1)C(=O)c1ccccc1C3=O` [Compound 38, (7S,9S)-9-Acetyl-7-[(3-amino-2,3,6-trideoxy-alpha-L-lyxo-hexopyranosyl)oxy]-7,8,9,10-tetrahydro-6,9,11-trihydroxy-5,12-naphthacenedione hydrochloride]: the Emax was found to be 92.6%.

In the case of `CN(C)CCC=C1c2ccccc2C=Cc2ccccc21` [Compound 90, 3-(5H-Dibenzo[a,d]cyclohepten-5-ylidene)-N,N-dimethylpropan-1-amine hydrochloride], the Emax came out at 70.2%.

With `CN1CCN(CC/C=C2/c3ccccc3Sc3ccc(S(=O)(=O)N(C)C)cc32)CC1` [Compound 109, (Z)-N,N-Dimethyl-9-[3-(4-methyl-1-piperazinyl)propylidene]thioxanthene-2-sulfonamide], the Emax is 36.5%.

For the compound `CC(C)(C)C(=O)C(=Cc1cccc([N+](=O)[O-])c1)n1cncn1` [Compound 76, 4,4-dimethyl-1-(3-nitrophenyl)-2-(1H-1,2,4-triazol-1-yl)-1-penten-3-one], the Emax came out at 50.4%.

For the compound `Cn1nc(C(C)(C)C)cc1C(=O)N[C@@H](Cc1cccc(Cl)c1)C(=O)NCC#N` [Compound 63, 3-tert-butyl-N-{(1S)-1-(3-chlorobenzyl)-2-[(cyanomethyl)amino]-2-oxoethyl}-1-methyl-1H-pyrazole-5-carboxamide], the Emax was 96.2%.

With `O=C(Nc1ccc(Cl)cc1)Nc1ccc(Cl)c(Cl)c1` [Compound 100, 3-(4-Chlorofenil)-1-(3,4-diclorofenil)urea], the Emax is 47.2%.
